# EP1985629A1, “Pro-apoptotic molecules and therapeutic uses thereof” (UNIVERSITA DEGLI STUDI DI GENOVA, priority 2007, dated 2008)
# Where a SMILES comes first, the peptide text is derived from it. [ ]: non-standard residue; d: D form. Aib = CC(C)(N)C(=O)O
# Legend:
# Bcl-XL = biological target: T1, Bcl-XL (Homo sapiens, UniProt Q07817, S2L); experiment: Fluorescence anisotropy binding and competition binding assay; conditions: competition binding assay: BakF-BH3 2E-8 M, competitor peptide 2E-7 M, Bcl-XL 2E-8 M to 1E-6 M; 45 min, 30°C; read-out: Weighted mean Kd
# T1 construct: with the C-terminus truncated; His6; made in house; host or cells: Escherichia coli BL21 (pLys)
# Protocol: Fluorescence Anisotropy was monitored with a Polarion Instrument (Tecan, Austria): excitation wavelength = 485 nm, emission wavelength = 535 nm. […] Anisotropy values were studied at a fixed concentration of fluoresceinated Bak BH3 molecule (2E-8 M), a fixed concentration of peptide inhibitors (2E-7 M) and increasing concentrations of Bel-XL (from 2E-8 M to 1E-6 M). Experiments were performed in 96-wells black non-binding plates (Corning), the experimental volume was always 200 µl / well. Reagents were mixed at room temperature and maintained at a constant temperature (30°C) during the measurements. Anisotropy measurements were performed at different times of incubation to assess the stability of the reactions. […]
# For simple binding experiments we evaluated the Kd using a nonlinear regression analysis [NLIN SAS] to fit the Lundblad equation [38]. […]
# We calculated the expected Anisotropy value solving a third degree equation obtained extending the simple binding equation to a competitive binding inhibition assay. […]
# Point estimates of each equilibrium constant were evaluated using meta-analytical tools weighting each experimental result for its estimated variance. […]
# Fluorescence Anisotropy (FA) is a quantitative technique to analyze the interaction of a smaller fluorescent molecule with a larger non fluorescent molecule. […]
# [1] = Circular dichroism, relative content of secondary structure elements; type: physicochemical; set-up: key to α-Helix / β-Strands / β-Turns / Random: relative content as fraction, from CDSSTR deconvolution; conditions: CDSSTR deconvolution
# Protocol: Circular dichroism (CD) spectra in the far-UV region (190-260 nm) were collected on a Jasco J-715 spectropolarimeter using a 0.1 cm path-length cuvette. Temperature was kept at 25°C by a Peltier device. Peptide concentration was determined from the absorption of the aromatic residues at 280 nm.
# Peptides solutions: Bim-BH3Y and Bim-BH3YA2Aib were suspended in water and potassium hydroxide was added up to complete solubilization. 072RB was dissolved in water. Concentration of stock solutions was about 0.1 mg/ml. For circular dichroism measurements, stock solutions were diluted in 10 mM potassium phosphate buffer, pH 7.
# The relative content of secondary structure elements was calculated with the deconvolution program CDSSTR [31] (Table 2). […] 072RB has the highest helical content in the set examined here (0.30 α-helix percent).
# [2] = Peptides stability in medium with 10% FBS or in 100% FBS (HPLC-MS); type: in vitro ADME; conditions: medium (RPMI 1640) with 10% FBS, 37°C, 32 µM; calculated by linear regression
# Protocol: Compounds were added to the medium solution of serum 10% or 100% FBS at the final concentration of 32 µM. Several extraction mixtures were attempted: MeOH; MeOH with 0,1% trifluoroacetic acid (TFA); (H2O: MeOH) 1:1, 1:4, 4;1. A perchloric acid (PCA) protein precipitation protocol was also tried. […] In both cases ice-cold methanol was added to the peptide solution. The mixture was centrifuged and the resulting supernatant was then added with ice-cold methanol (alone or containing 0,1% TFA) at a 1:1 final ratio and this procedure was repeated twice. Before extraction peptides were incubated in 10% FBS or 100% FBS at 37°C and, at different incubation times (0', 6, 24 and 48 hours), a sample of 50 µl was collected to be analyzed by HPLC-MS.
# [3] = relative content, 10 mM potassium phosphate buffer, pH 7, 25°C
# T1 sequence (Q07817 1-212 S2L): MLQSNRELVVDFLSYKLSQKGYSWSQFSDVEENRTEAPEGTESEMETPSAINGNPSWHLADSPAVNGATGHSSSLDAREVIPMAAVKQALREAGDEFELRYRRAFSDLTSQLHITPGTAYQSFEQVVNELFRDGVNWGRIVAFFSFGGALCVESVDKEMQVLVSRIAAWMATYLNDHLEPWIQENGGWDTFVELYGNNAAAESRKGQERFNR
structure (smiles),measurement,setting,value
CC[C@H](C)[C@H](NC(=O)[C@H](CCCNC(=N)N)NC(=O)[C@H](CCCNC(=N)N)NC(=O)[C@H](CC(C)C)NC(=O)[C@H](CCC(=O)O)NC(=O)[C@H](CCC(N)=O)NC(=O)C(C)(C)NC(=O)[C@@H](NC(=O)[C@H](Cc1ccc(O)cc1)NC(=O)[C@@H](NC(=O)[C@H](CCC(=O)O)NC(=O)[C@@H]1CCCN1C(=O)[C@H](CCCNC(=N)N)NC(=O)[C@H](CCSC)NC(=O)[C@@H](N)CC(=O)O)[C@@H](C)CC)[C@@H](C)CC)C(=O)NCC(=O)N[C@@H](CC(=O)O)C(=O)N[C@@H](C)C(=O)N[C@@H](Cc1ccccc1)C(=O)N[C@@H](CC(N)=O)C(=O)NC(C)(C)C(=O)N[C@@H](Cc1ccc(O)cc1)C(N)=O [Bim-BH3YA2Aib] (H-DMRPEIYI[Aib]QELRRIGDAFN[Aib]Y-NH2; N-terminus and C-terminus assumed),Kd,Bcl-XL,12 nM
same,relative content of helices,[1],0.15 α-helix percent
same,Random,[1]; [3],0.56
same,α-Helix,[1]; [3],0.15
same,β-Strands,[1]; [3],0.14
same,β-Turns,[1]; [3],0.15
same,half-life,[2],"99,0 h"
